In patent US7199099B2, “Methanobactin: a copper binding compound having antibiotic and antioxidant activity isolated from methanotrophic bacteria” (priority 2002, dated 2007):
Converted amounts (≈) assume the structure as drawn.

Assays:
Escherichia coli, X161 = assay: Antimicrobial activity, Escherichia coli X161; format: cell-based; settings: purified methanobactin
Experimental: (§1) Enterococcus fecalus was cultured aerobically on Brain Heart Infusion broth at 37° C., Staphyloccus aureus, Escherichia coli, X161, and Bacillus thuringiensis were cultured aerobically on Lauria-Burtani broth at 37° C., and Listeria monocytogenes was grown on Trypticase soy broth containing 0.6% yeast extract at 35° C. Minimum inhibitory concentrations were determined as previously described (A. F. Mendoca and S. J. Knabel. 1994. A novel strictly anaerobic recovery and enrichment system incorporating lithium for detection of heat-injured Listeria monocytogenes in pasteurized milk containing background microflora. Appl. Environ. Microbiol. 60: 4001–4008).

washed cell suspensions = assay: Oxygen uptake activity of washed cell suspensions; format: cell-based
Experimental: Oxygen uptake activity of washed cell suspensions was determined with a Clark oxygen electrode maintained at a constant water temperature of 37° C. Cell samples containing methanobactin were preincubated 5 minutes at 37° C. before the addition of substrate.

Candida albicans, X657 = assay: Antimicrobial activity, Candida albicans X657; format: cell-based; settings: purified methanobactin
[1] = format: physicochemical
From the text: Solution properties of the methanobactin varied with metal binding and pH.

Micrococcus luteus X186 = format: cell-based
gram-positive bacteria = assay: Bacteriocidal activity against gram-positive bacteria; format: cell-based, Staphylococci, Streptococci and Enterococci; settings: including vancomycin resistant and methicillin-resistant strains
Experimental: as §1

gram-negative bacteria = assay: Activity against gram-negative bacteria; format: cell-based

CSCC[C@H](NC(=O)[C@@H]1CSSC[C@H](NC(=O)[C@H](CO)NC(=O)CN/C(S)=C2/N=C(C(=O)CC(C)C)OC2=O)C(=O)N[C@@H](Cc2ccc(O)cc2)C(=O)N2CCC[C@H]2C2=N/C(=C(\S)N[C@@H](CO)C(=O)N1)C(=O)O2)C(=O)O [methanobactin, N-2-isopropylester-(4-thionyl-5-hydroxy-imidazole)-Gly^1-Ser^2-Cys^3-Tyr^4-pyrrolidine-(4-thionyl-5-hydroxy-imidazole)-Ser^5-Cys^6-Met^7]
Antimicrobial Activity (Escherichia coli, X161): 0
effect on respiration (washed cell suspensions; higher concentrations): respiratory inhibitor
effect on respiration (washed cell suspensions; low concentrations): respiratory uncoupler
Antimicrobial Activity (Candida albicans, X657): 0
solubility [1]: very soluble
MIC (Micrococcus luteus X186): 24 µg/mL (≈ 20.8 µM)
bacteriocidal activity against gram-positive bacteria (gram-positive bacteria): bacteriocidal activity
effectiveness against gram-negative bacteria (gram-negative bacteria; methanobactin by itself): not been found to be effective
activity against gram negative bacteria in combination with a metal chelator (gram-negative bacteria; with EDTA, at least about 1:1 methanobactin to EDTA): bacteriocidal
